Reference: ChEMBL document CHEMBL1152779, “Synthesis and applications of polyamine amino acid residues: improving the bioactivity of an analgesic neuropeptide, neurotensin” (J Med Chem, 2009)
The source made the active and inactive calls. The rule behind the calls is not given here. Numbered stars: 1 amine (or outer) side, 2 acyl side, 3 side chain; on linkers, the order of the positions; unused ones are H or OH. Square brackets hold non-standard residues; d marks the D form. Peptide text beside a SMILES is read from it. X1 = NCCCNCCCCNCCCNCCCNCCCC[C@H](N[*:1])C(=O)[*:2]; X2 = O=C([C@H](Cc1cccc2cc[nH]c12)N[*:1])[*:2]; NMeR = CN[C@@H](CCCNC(=N)N)C(=O)O; Tle = CC(C)(C)[C@H](N)C(=O)O

Columns and labels:
[1] = molecular target: Neurotensin receptor type 1 (Homo sapiens, UniProt P30989); assay: Binding affinity to human recombinant NTS1 in HEK293T cells by competitive binding assay; type: cell-based, HEK-293T
Mus musculus [2] = assay: Analgesic activity against formalin-induced paw pain in mouse assessed as effect on duration of paw licking at 4 mg/kg, ip 1 hr before formalin challenge; type: functional, organism-based; design: dose 4 mg/kg
Mus musculus [3] = assay: Analgesic activity against formalin-induced paw pain in mouse assessed as elimination of inflammatory phase at 4 mg/kg, ip 1 hr before formalin challenge; type: functional, organism-based; design: dose 4 mg/kg

Chain of Neurotensin receptor type 1 (P30989 whole entry): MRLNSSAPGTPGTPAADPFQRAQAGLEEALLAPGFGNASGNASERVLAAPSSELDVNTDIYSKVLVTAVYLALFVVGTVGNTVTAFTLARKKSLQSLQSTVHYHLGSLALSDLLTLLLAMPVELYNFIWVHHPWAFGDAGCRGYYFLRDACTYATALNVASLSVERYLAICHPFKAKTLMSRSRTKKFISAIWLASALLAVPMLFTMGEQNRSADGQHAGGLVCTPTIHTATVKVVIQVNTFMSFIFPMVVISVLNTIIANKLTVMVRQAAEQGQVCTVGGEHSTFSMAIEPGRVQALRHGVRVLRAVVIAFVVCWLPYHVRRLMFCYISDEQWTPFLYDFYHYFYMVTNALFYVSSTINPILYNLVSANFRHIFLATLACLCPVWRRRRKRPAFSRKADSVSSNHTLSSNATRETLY

| SMILES | Kd [1] [nM] | Activity (Mus musculus [2]) | Activity (Mus musculus [3]) |
| --- | --- | --- | --- |
| CC[C@H](C)[C@@H]1NC(=O)[C@H](Cc2ccc(O)cc2)NC(=O)[C@@H]2CCCN2C(=O)[C@H](CCCCN)NC(=O)[C@H](CCCCN)NC(=O)[C@H](CC(C)C)NC(=O)[C@H]([C@@H](C)CC)NC(=O)[C@H](Cc2ccc(O)cc2)NC(=O)[C@@H]2CCCN2C(=O)[C@H](CCCCN)NC(=O)[C@H](CCCCN)NC(=O)[C@H](CC(C)C)NC1=O (cyclo(ILKKPYILKKPY)) | 150 |  |  |
| CN[C@@H](CCCN=C(N)N)C(=O)N[C@@H](CCCCN)C(=O)N1CCC[C@H]1C(=O)N[C@@H](Cc1cccc2cc[nH]c12)C(=O)N[C@H](C(=O)N[C@@H](CC(C)C)C(=O)O)C(C)(C)C (H-[NMeR]KP[X2][Tle]L-OH) | 1.55 |  |  |
| CC[C@H](C)[C@H](NC(=O)[C@H](Cc1ccc(O)cc1)NC(=O)[C@@H]1CCCN1C(=O)[C@H](CCCCN)NC(=O)[C@H](CCCCN)NC(=O)[C@H](CCCCNCCCNCCCNCCCCNCCCN)NC(C)=O)C(=O)N[C@@H](CC(C)C)C(=O)O (Ac-[X1]KKPYIL-OH) |  | Active | Active |
